Reference: US20240158418A1 (C4 Therapeutics, Inc., priority 2021, published 2024)
Read-outs that look alike come from different tables or passages of the source.

Legend:
EGFR L858R-T790M = target: T1, EGFR L858R-T790M (Homo sapiens, UniProt P00533, L858R/T790M); test: EGFR degradation, Total EGFR (L858R-specific) HTRF, NCI-H1975; type: cell-based; settings: NCI-H1975 cells, 6 hours, Total EGFR HTRF, read-out: H1975 EGFR DC50
T1 construct: NCI-H1975 (harboring EGFR heterozygous L858R-T790M mutations); host or cells: NCI-H1975
Summary of the method: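 FRET signal from HTRF kits measured phospho-EGFR at pY1068 or total EGFR after 6 h treatment at 37 °C. Compounds ran as 11-point half-log dilutions from 10 μM in duplicate, in cells in phenol red-free RPMI with 10% FBS. Concentrations giving 50% inhibition or degradation were reported as IC50 or DC50.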

EGFR L858R = EGFR L858R (Homo sapiens, UniProt P00533, L858R); test: EGFR degradation, Total EGFR (L858R-specific) HTRF, NCI-H3255; type: cell-based; parameters: NCI-H3255 (harboring EGFR heterozygous L858R mutation); host or cells: NCI-H3255; settings: NCI-H3255 cells, 6 hours, Total EGFR HTRF, read-out: H3255 EGFR DC50
From the text: NCI-H1975 (harboring EGFR heterozygous L858R-T790M mutations) and NCI-H3255 (harboring EGFR heterozygous L858R mutation) were purchased from ATCC and NCI, respectively. NCI-H1975+CS (harboring EGFR heterozygous L858R-T790M-C797S mutations) was generated using CRISPR technology to introduce the additional C797S mutation by Horizon Discovery. A431 (harboring EGFR wildtype) was purchased from ATCC. RPMI 1640 no-phenol red medium and fetal bovine serum (FBS) were purchased from Gibco (Grand Island, NY, USA). Cell culture flasks and 384-well microplates were acquired from VWR (Radnor, PA, USA). Phosphorylated (pY1068) EGFR and Total EGFR (using L858R-specific detection antibody and pan-EGFR antibody for EGFR mutant cell lines and EGFR wild-type cell lines, respectively) HTRF assay kits were purchased from Cisbio (Bedford, MA, USA).
Degradation of EGFR protein containing L858R mutation or wild-type was determined based on quantification of FRET signal using a Total EGFR (L858R-specific or pan-EGFR detecting) HTRF assay kit. Phospho-EGFR (pEGFR) inhibition was determined based on quantification of FRET signal using a pY1068 EGFR HTRF assay kit. In separate assay plates, test compounds were added to the 384-well plate from a top concentration of 10 μM with 11 points, half log titration in duplicates. For each assay, 12.5 uL of cells suspended in assay media (RPMI 1640 no-phenol red medium+10% FBS) at cell densities indicated for each cell line in Table 8 below were dispensed using a multi-channel pipette to 384-well low volume white HTRF microplates containing a duplicate concentration range of test compounds and DMSO controls. The plates were kept at 37° C. with 5% CO2 for 6 hours and then incubated with either phospho EGFR or Total EGFR HTRF detection antibodies according to the cell line and EGFR mutant being assayed. Cells treated in the absence of the test compound were the negative control. Positive control was set by wells containing all reagents but no cells. FRET signal was acquired on EnVision™ Multilabel Reader (PerkinElmer, Santa Clara, CA, USA). Compound concentration that achieves 50% degradation and inhibition was reported as DC50 and IC50, respectively.

T1 sequence (P00533 25-1210 T790M/L858R): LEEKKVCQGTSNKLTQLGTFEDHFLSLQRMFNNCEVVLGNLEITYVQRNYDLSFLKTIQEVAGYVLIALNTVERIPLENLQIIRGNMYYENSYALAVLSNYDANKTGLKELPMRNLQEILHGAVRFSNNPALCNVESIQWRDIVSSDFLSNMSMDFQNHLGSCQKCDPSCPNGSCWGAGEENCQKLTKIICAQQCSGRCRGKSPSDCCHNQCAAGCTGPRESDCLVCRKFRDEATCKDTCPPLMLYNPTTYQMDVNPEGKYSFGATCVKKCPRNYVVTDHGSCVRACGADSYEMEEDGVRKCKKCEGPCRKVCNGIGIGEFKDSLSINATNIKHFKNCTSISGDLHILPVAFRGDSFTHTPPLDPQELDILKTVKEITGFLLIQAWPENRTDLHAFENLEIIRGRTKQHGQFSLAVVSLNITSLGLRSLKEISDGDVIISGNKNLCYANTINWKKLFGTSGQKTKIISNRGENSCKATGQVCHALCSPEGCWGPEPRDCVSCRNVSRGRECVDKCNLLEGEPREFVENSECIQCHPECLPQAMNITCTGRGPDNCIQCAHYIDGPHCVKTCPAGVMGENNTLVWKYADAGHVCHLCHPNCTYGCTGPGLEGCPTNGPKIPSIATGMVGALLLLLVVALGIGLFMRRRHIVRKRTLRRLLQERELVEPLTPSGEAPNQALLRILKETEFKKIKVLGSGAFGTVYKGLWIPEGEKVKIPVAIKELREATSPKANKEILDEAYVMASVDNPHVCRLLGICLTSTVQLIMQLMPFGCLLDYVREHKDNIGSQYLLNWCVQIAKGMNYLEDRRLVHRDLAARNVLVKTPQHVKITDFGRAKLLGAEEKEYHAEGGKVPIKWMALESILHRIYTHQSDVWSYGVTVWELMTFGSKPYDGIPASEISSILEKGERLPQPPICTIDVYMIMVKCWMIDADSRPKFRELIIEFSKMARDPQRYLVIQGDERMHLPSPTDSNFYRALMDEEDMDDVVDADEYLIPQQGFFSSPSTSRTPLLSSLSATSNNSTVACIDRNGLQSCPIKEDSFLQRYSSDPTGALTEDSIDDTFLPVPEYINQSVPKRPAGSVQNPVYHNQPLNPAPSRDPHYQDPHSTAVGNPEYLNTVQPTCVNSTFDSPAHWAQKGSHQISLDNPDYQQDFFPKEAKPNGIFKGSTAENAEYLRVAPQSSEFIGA
Sequence of EGFR L858R (P00533 25-1210 L858R): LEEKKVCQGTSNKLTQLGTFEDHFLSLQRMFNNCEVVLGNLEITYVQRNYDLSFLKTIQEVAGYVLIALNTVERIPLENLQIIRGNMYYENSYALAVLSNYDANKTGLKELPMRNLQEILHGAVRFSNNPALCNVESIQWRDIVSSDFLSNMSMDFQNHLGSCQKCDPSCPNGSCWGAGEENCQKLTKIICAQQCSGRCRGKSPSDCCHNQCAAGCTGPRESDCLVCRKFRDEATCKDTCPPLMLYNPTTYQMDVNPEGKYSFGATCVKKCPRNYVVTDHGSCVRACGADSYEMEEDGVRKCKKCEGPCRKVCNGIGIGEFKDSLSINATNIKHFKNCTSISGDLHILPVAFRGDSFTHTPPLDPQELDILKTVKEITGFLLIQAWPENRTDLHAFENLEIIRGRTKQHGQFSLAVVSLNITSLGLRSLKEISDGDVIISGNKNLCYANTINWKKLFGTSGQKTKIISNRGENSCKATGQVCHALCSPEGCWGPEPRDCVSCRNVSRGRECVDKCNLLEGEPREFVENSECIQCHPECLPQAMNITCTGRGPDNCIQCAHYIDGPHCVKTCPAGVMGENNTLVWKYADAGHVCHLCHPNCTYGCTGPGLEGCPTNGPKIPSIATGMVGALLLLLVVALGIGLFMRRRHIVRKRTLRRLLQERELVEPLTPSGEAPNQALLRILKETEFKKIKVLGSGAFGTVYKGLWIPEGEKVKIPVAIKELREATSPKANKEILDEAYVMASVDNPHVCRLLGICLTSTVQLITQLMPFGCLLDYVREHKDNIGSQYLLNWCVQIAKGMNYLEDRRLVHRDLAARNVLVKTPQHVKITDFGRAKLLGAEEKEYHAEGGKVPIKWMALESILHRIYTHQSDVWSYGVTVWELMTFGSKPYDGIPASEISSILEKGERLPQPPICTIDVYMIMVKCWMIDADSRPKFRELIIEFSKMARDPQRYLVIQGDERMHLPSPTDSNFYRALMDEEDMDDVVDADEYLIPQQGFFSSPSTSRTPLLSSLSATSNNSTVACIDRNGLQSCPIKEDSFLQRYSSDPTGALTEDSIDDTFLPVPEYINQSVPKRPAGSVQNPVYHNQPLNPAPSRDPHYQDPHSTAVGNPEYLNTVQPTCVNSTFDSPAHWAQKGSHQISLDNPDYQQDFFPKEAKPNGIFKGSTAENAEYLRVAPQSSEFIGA

SMILES | DC50 (EGFR L858R-T790M; Table 9A) | DC50 (EGFR L858R; Table 9A) | DC50 (EGFR L858R-T790M; Table 9B) | DC50 (EGFR L858R; Table 9B)
O=C1CC[C@H](Nc2ccc(C3CCN(CC(=O)N4CCC(c5ccc(-c6cc(F)c7c(c6)C(=O)N(C(C(=O)Nc6nccs6)c6ncn8c6CCC8)C7)cc5)CC4)CC3)cc2)C(=O)N1 (stereo partly drawn) [Compound 22, 2-(6,7-dihydro-5H-pyrrolo[1,2-c]imidazol-1-yl)-2-(6-(4-(1-(2-(4-(4-(((S)-2,6-dioxopiperidin-3-yl)amino)phenyl)piperidin-1-yl)acetyl)piperidin-4-yl)phenyl)-4-fluoro-1-oxoisoindolin-2-yl)-N-(thiazol-2-yl)acetamide] | < 50 nM | < 50 nM |  | 
O=C1CC[C@H](Nc2ccc(C3CCN(CC(=O)N4CCC(Cc5ccc(-c6cc(F)c7c(c6)C(=O)N(C(C(=O)Nc6nccs6)c6ncn8c6CCC8)C7)cc5)CC4)CC3)c(F)c2)C(=O)N1 (stereo partly drawn) [Compound 60, 2-(6,7-dihydro-5H-pyrrolo[1,2-c]imidazol-1-yl)-2-[6-[4-[[1-[2-[4-[4-[[(3S)-2,6-dioxo-3-piperidyl]amino]-2-fluoro-phenyl]-1-piperidyl]acetyl]-4-piperidyl]methyl]phenyl]-4-fluoro-1-oxo-isoindolin-2-yl]-N-thiazol-2-yl-acetamide] | 50 to 150 nM | < 50 nM |  | 
O=C1CCC(Nc2ccc(C3CCN(CC(=O)N4CCN(c5ccc(-c6cc(F)c7cn(C(C(=O)Nc8nccs8)c8ncn9c8CCC9)nc7c6)cn5)CC4)CC3)nc2)C(=O)N1 (stereo not drawn) [Compound 66, 2-(6,7-dihydro-5H-pyrrolo[1,2-c]imidazol-1-yl)-2-[6-[6-[4-[2-[4-[5-[(2,6-dioxo-3-piperidyl)amino]-2-pyridyl]-1-piperidyl]acetyl]piperazin-1-yl]-3-pyridyl]-4-fluoro-indazol-2-yl]-N-thiazol-2-yl-acetamide] | < 50 nM | < 50 nM |  | 
O=C1CCC(Nc2ccc(C3CCN(C(=O)C(=O)N4CCC(Oc5ccc(-c6cc(F)c7c(c6)C(=O)N(C(C(=O)Nc6nccs6)c6ncn8c6CCC8)C7)cc5)CC4)CC3)cc2)C(=O)N1 (stereo not drawn) [Compound 40, 2-(6,7-dihydro-5H-pyrrolo[1,2-c]imidazol-1-yl)-2-[6-[4-[[1-[2-[4-[4-[(2,6-dioxo-3-piperidyl)amino]phenyl]-1-piperidyl]-2-oxo-acetyl]-4-piperidyl]oxy]phenyl]-4-fluoro-1-oxo-isoindolin-2-yl]-N-thiazol-2-yl-acetamide] | < 50 nM | < 50 nM |  | 
Cn1nc(N2CCC(=O)NC2=O)c2ccc(C3CCN(CC(=O)N4CC5(C4)CN(c4ccc(-c6cc(F)c7c(c6)C(=O)N(C(C(=O)Nc6nccs6)c6ncn8c6CCC8)C7)cc4)C5)CC3)cc21 (stereo not drawn) [Compound 49, 2-(6,7-dihydro-5H-pyrrolo[1,2-c]imidazol-1-yl)-2-[6-[4-[2-[2-[4-[3-(2,4-dioxohexahydropyrimidin-1-yl)-1-methyl-indazol-6-yl]-1-piperidyl]acetyl]-2,6-diazaspiro[3.3]heptan-6-yl]phenyl]-4-fluoro-1-oxo-isoindolin-2-yl]-N-thiazol-2-yl-acetamide] | < 50 nM | < 50 nM |  | 
O=C1CC[C@H](Nc2ccc(C3CCN(CC(=O)N4CC5(C4)CN(c4ccc(-c6cc(F)c7c(c6)C(=O)N(C(C(=O)Nc6ccccn6)c6ncn8c6CCC8)C7)cc4)C5)CC3)c(F)c2)C(=O)N1 (stereo partly drawn) [Compound 53, 2-(6,7-dihydro-5H-pyrrolo[1,2-c]imidazol-1-yl)-2-[6-[4-[2-[2-[4-[4-[[(3S)-2,6-dioxo-3-piperidyl]amino]-2-fluoro-phenyl]-1-piperidyl]acetyl]-2,6-diazaspiro[3.3]heptan-6-yl]phenyl]-4-fluoro-1-oxo-isoindolin-2-yl]-N-(2-pyridyl)acetamide] | 50 to 150 nM | < 50 nM |  | 
O=C1CC[C@H](Nc2ccc(C3CCN(CC(=O)N4CCN(c5ccc(-c6cc(F)c7cn(C(C(=O)Nc8nccs8)c8ncn9c8CCC9)nc7c6)cn5)CC4)CC3)c(F)c2)C(=O)N1 (stereo partly drawn) [Compound 68, 2-(6,7-dihydro-5H-pyrrolo[1,2-c]imidazol-1-yl)-2-(6-(6-(4-(2-(4-(4-(((S)-2,6-dioxopiperidin-3-yl)amino)-2-fluorophenyl)piperidin-1-yl)acetyl)piperazin-1-yl)pyridin-3-yl)-4-fluoro-2H-indazol-2-yl)-N-(thiazol-2-yl)acetamide] | < 50 nM | < 50 nM |  | 
O=C1CC[C@H](Nc2ccc(C3CCN(CC(=O)N4CCC(c5cnn(-c6cc(F)c7c(c6)C(=O)N(C(C(=O)Nc6nccs6)c6ncn8c6CCC8)C7)c5)CC4)CC3)cc2)C(=O)N1 (stereo partly drawn) [Compound 29, 2-(6,7-dihydro-5H-pyrrolo[1,2-c]imidazol-1-yl)-2-[6-[4-[1-[2-[4-[4-[[(3S)-2,6-dioxo-3-piperidyl]amino]phenyl]-1-piperidyl]acetyl]-4-piperidyl]pyrazol-1-yl]-4-fluoro-1-oxo-isoindolin-2-yl]-N-thiazol-2-yl-acetamide] | < 50 nM | < 50 nM |  | 

The remaining lines, values ahead:

DC50 (EGFR L858R-T790M; Table 9A) | DC50 (EGFR L858R; Table 9A) | DC50 (EGFR L858R-T790M; Table 9B) | DC50 (EGFR L858R; Table 9B) | SMILES
 |  | < 50 nM | < 50 nM | O=C1CCC(Nc2cc(F)c(N3CCC(O)(CC(=O)N4CC5(C4)CN(c4ccc(-c6cc(F)c7c(c6)C(=O)N(C(C(=O)Nc6nccs6)c6ncn8c6CCC8)C7)cc4)C5)CC3)c(F)c2)C(=O)N1 (stereo not drawn) [Compound 103, 2-(6,7-dihydro-5H-pyrrolo[1,2-c]imidazol-1-yl)-2-[6-[4-[2-[2-[1-[4-[(2,6-dioxo-3-piperidyl)-amino]-2,6-difluoro-phenyl]-4-hydroxy-4-piperidyl]acetyl]-2,6-diazaspiro[3.3]hept-an-6-yl]-phenyl]-4-fluoro-1-oxo-isoindolin-2-yl]-N-thiazol-2-yl-acetamide]
 |  | < 50 nM | < 50 nM | O=C1CCC(Nc2ccc(C3CCN(CC(=O)N4CCN(c5ccc(-c6cc(F)c7c(c6)C(=O)N(C(C(=O)Nc6nccs6)c6ncn8c6CCC8)C7)cc5)CC4)CC3)nc2)C(=O)N1 (stereo not drawn) [Compound 179, 2-(6,7-dihydro-5H-pyrrolo[1,2-c]imidazol-1-yl)-2-[6-[4-[4-[2-[4-[5-[(2,6-dioxo-3-piperidyl)amino]-2-pyridyl]-1-piperidyl]acetyl]piperazin-1-yl]phenyl]-4-fluoro-1-oxo-isoindolin-2-yl]-N-thiazol-2-yl-acetamide]
 |  | < 50 nM | < 50 nM | O=C1CCC(Nc2ccc(C3CCC(CC(=O)N4CCN(c5ccc(-c6cc(F)c7c(c6)C(=O)N(C(C(=O)Nc6nccs6)c6ncn8c6CCC8)C7)cc5)CC4)CC3)cc2)C(=O)N1 (stereo not drawn) [Compound 177, 2-(6,7-dihydro-5H-pyrrolo[1,2-c]imidazol-1-yl)-2-(6-(4-(4-(2-(4-(4-((2,6-dioxopiperidin-3-yl)amino)phenyl)cyclohexyl)acetyl)piperazin-1-yl)phenyl)-4-fluoro-1-oxoisoindolin-2-yl)-N-(thiazol-2-yl)acetamide]
 |  | 50 to 150 nM | 50 to 150 nM | O=C1CC[C@H](Nc2ccc(C3CCN(CC(=O)N4CCCN(c5ccc(-c6cc(F)c7c(c6)C(=O)N(C(C(=O)Nc6nccs6)c6ncn8c6CCC8)C7)cc5)CC4)CC3)c(F)c2)C(=O)N1 (stereo partly drawn) [Compound 84, 2-(6,7-dihydro-5H-pyrrolo[1,2-c]imidazol-1-yl)-2-(6-(4-(4-(2-(4-(4-(((S)-2,6-dioxopiperidin-3-yl)amino)-2-fluorophenyl)piperidin-1-yl)acetyl)-1,4-diazepan-1-yl)phenyl)-4-fluoro-1-oxoisoindolin-2-yl)-N-(thiazol-2-yl)acetamide]
